{
  "source": "patent US5962417A",
  "about": "“Methods of modulating melanin synthesis” (Trustees of Boston University, priority 1998, dated 1999)",
  "key": {"TRP 1": {"test_system": "TRP 1", "protocol": "(§1) To investigate whether PKC regulates other melanogenic proteins such as tyrosinase related proteins (TPR 1 and TPR 2), melanocytes were treated with 10^-7 M TPA for 2 weeks, a condition known to deplete PKC, and TRP 1 and TRP 2 protein levels were determined using immunoblot analysis with specific antibodies. […] TRP 1 and TRP 2 were immunoprecipitated and incorporation of ^3 H-glycosamine into these proteins was examined."}, "TRP 2": {"molecular_target": "TRP 2", "protocol": "as §1"}, "[1]": {"conditions": "10^-7 M TPA for 2 weeks (PKC depletion), melanocytes"}, "[2]": {"conditions": "TPA for 2 weeks, melanocytes labeled with 3H-glycosamine"}},
  "data": [
    {"smiles": "CCCCCCCCCCCCCC(=O)O[C@@H]1[C@@H](C)[C@@]2(O)[C@@H](C=C(CO)C[C@]3(O)C(=O)C(C)=C[C@@H]23)[C@@H]2C(C)(C)[C@]12OC(C)=O", "note": "[TPA, tetraphorbol acetate]", "values": [
      {"measurement": "effect on TRP 1 protein level", "setting": "TRP 1; [1]", "value": "no effect"},
      {"measurement": "effect on glycosylated or non-glycosylated form of TRP 1 (3H-glycosamine labeling)", "setting": "TRP 1; [2]", "value": "did not affect"},
      {"measurement": "effect on 65 kd non-glycosylated TRP 2 precursor", "setting": "TRP 2; [1]", "value": "unaffected"},
      {"measurement": "reduction of level of glycosylated mature form of TRP 2 (80 kd)", "setting": "TRP 2; [1]", "value": "50-70%"},
      {"measurement": "reduction of 3H-glycosamine incorporation into TRP 2", "setting": "TRP 2; [2]", "value": "> 50", "unit": "%"}
    ]}
  ]
}
